Like-named read-outs stand apart in the source and are kept apart here.

The record followed here is article PMC3806465, “Discovery and Evaluation of Thiazinoquinones as Anti-Protozoal Agents” (Marine Drugs, 2013).

Data set [1] relates to Trypanosoma brucei rhodesiense, STIB 900 strain, trypomastigotes stage. In words: In vitro activity against T. b. rhodesiense. The class given is cell-based. Here is the method:
(§1) The in vitro activities against the protozoan parasites T.b. rhodesiense, T. cruzi, L. donovani, and P. falciparum and cytotoxicity assessment against L6 cells were determined as reported elsewhere.

For data set [2], the system named is Trypanosoma cruzi, Tulahuen C4 strain, amastigotes stage. In words: In vitro activity against T. cruzi. In kind it is cell-based. Here is the method:
as §1

For data set [3], the system named is Leishmania donovani, MHOM-ET-67/L82 strain, amastigote/axenic stage. In words: In vitro activity against L. donovani. The class given is cell-based. Here is the method: as §1
Data set [4] deals with Plasmodium falciparum, K1 strain, IEF stage. Description: In vitro activity against P. falciparum K1. In kind it is cell-based. As to conditions: for SI Pf: Selectivity index for P. falciparum = IC50 L6/IC50 Pf. Here is the method:
as §1

Data set [5] has as its system L6 rat skeletal myoblast cell line. In words: Cytotoxicity against L6 cells. The class given is cell-based. As for the experimental part:
as §1

Setting [6] is: Trypanosoma brucei, STIB 900, trypomastigotes, average of two independent assays, read-out: IC50 T. b. rhod.
Setting [7] is: Trypanosoma cruzi, TULAHUEN, Tulahuen C4, amastigotes, average of two independent assays, read-out: IC50 T. cruzi.
The mark [8] stands for this setting: Leishmania donovani, MHOM-ET-67/L82, axenic amastigotes, average of two independent assays, read-out: IC50 L. don.
[9] abbreviates: Plasmodium falciparum, K1 dual drug resistant strain, IEF stage, average of two independent assays, read-out: IC50 P. falc. K1.
Where [10] appears, read: Rattus norvegicus, Myoblast, cytotoxicity, L6 rat skeletal myoblasts, average of two independent assays, read-out: IC50 L6.

By melting point is commonly meant the temperature, or range, at which the solid turns liquid. For the compound `O=C(O)c1cc2c(s1)C(=O)C1=C(NCCS1(=O)=O)C2=O` [Compound 11b, 5,9-Dioxo-2,3,5,9-tetrahydro-1H-thieno[3′,2′:4,5]benzo[1,2-b][1,4] thiazine-7-carboxylic Acid 4,4-Dioxide], the melting point is 200 °C (dec.).
As usually defined, the IC50 is the concentration at which inhibition is half-maximal. As for `CCCCCCCCNC(=O)c1ccc2c(n1)C(=O)C1=C(C2=O)S(=O)(=O)CCN1` [Compound 7c, N-n-Octyl-5,10-dioxo-3,4,5,10-tetrahydro-2H-[1,4]thiazino[2,3-g]quinoline-7-carboxamide 1,1-Dioxide], the melting point is 200 °C (dec.). Besides, the IC50 in data set [1] (setting [6]) amounted to 3.9 µM. The IC50 in data set [2] (setting [7]) stood at 15 µM. The IC50 in data set [3] (setting [8]) is 48 µM. For the same compound, the half-inhibitory concentration (IC50) in data set [4] (setting [9]) came to 1.1 µM. Also, the “SI Pf” value in data set [4] is given as 10. Also, the IC50 in data set [5] (setting [10]) stood at 12 µM.
As for `O=C(NCc1ccccc1)c1ccc2c(n1)C(=O)C1=C(C2=O)S(=O)(=O)C=CN1` [Compound 8d, N-Benzyl-5,10-dioxo-5,10-dihydro-4H-[1,4]thiazino[2,3-g]quinoline-7-carboxamide 1,1-Dioxide], the melting point was 280 °C (dec.). In addition, the IC50 in data set [1] (setting [6]) was 4.2 µM. For the same compound, the IC50 in data set [2] (setting [7]) came out at 160 µM. Also, the IC50 in data set [3] (setting [8]) was over 250 µM. In data set [4] (setting [9]), the IC50 worked out at 4.7 µM. For the same compound, the “SI Pf” value in data set [4] stood at 7. Besides, the IC50 in data set [5] (setting [10]) stood at 34 µM.
The compound `CCOC(=O)c1cc2c(o1)C(=O)C1=C(C2=O)S(=O)(=O)CCN1` [Compound 15, Ethyl 5,9-Dioxo-3,4,5,9-tetrahydro-2H-benzofuro[5,6-b][1,4]thiazine-7-carboxylate 1,1-Dioxide] yielded a melting point of 277 °C. Further, the IC50 in data set [1] (setting [6]) is 1.1 µM. Also, in data set [2] (setting [7]), the IC50 worked out at 4.7 µM. Moreover, the IC50 in data set [3] (setting [8]) is 40 µM. Also, the IC50 in data set [4] (setting [9]) is 0.11 µM. The “SI Pf” value in data set [4] turned out to be 46. Besides, the IC50 in data set [5] (setting [10]) worked out at 5.1 µM.
For the compound `COCCNC(=O)c1ccc2c(n1)C(=O)C1=C(C2=O)S(=O)(=O)CCN1` [Compound 7i, N-(2-Methoxyethyl)-5,10-dioxo-3,4,5,10-tetrahydro-2H-[1,4]thiazino[2,3-g] quinoline-7-carboxamide 1,1-Dioxide], the melting point is 200 °C (dec.).
On to `CCCCCCCCCCCCCCCCOP(=O)([O-])OCC[N+](C)(C)C` [Miltefosine, reference compound], for which the IC50 turned out to be 0.5 µM in data set [3] (setting [8]); 0.213 µg/mL in data set [3] (Leishmania donovani, MHOM/ET/67/L82, axenic amastigote forms, positive control, read-out: IC50 L. donovani); 0.53 µM in data set [3] (MHOM-ET-67/L82, axenic amastigotes, average of two independent assays, read-out: IC50 L. don.).
On to `CCCCNC(=O)c1ccc2c(n1)C(=O)C1=C(C2=O)S(=O)(=O)C=CN1` [Compound 8a, N-n-Butyl-5,10-dioxo-5,10-dihydro-4H-[1,4]thiazino[2,3-g]quinoline-7-carboxamide 1,1-Dioxide], for which the melting point is 200 °C (dec.). Also, the IC50 in data set [1] (setting [6]) turned out to be 3.7 µM. The IC50 in data set [2] (setting [7]) is 63 µM. In addition, the IC50 in data set [3] (setting [8]) is over 280 µM. Also, the IC50 in data set [4] (setting [9]) came to 0.7 µM. Also, the “SI Pf” value in data set [4] amounted to 33. Further, the IC50 in data set [5] (setting [10]) turned out to be 23 µM.
For the compound `O=C(NCc1ccccc1)c1ccc2c(n1)C(=O)C1=C(C2=O)S(=O)(=O)CCN1` [Compound 7d, N-Benzyl-5,10-dioxo-3,4,5,10-tetrahydro-2H-[1,4]thiazino[2,3-g]quinoline-7-carboxamide 1,1-Dioxide], the melting point was 200 °C (dec.). For the same compound, in data set [1] (setting [6]), the IC50 is 1.9 µM. For the same compound, the IC50 in data set [2] (setting [7]) came out at 43 µM. Moreover, the IC50 in data set [3] (setting [8]) was 21 µM. For the same compound, the IC50 in data set [4] (setting [9]) is 1.1 µM. Besides, the “SI Pf” value in data set [4] stood at 14. Further, the IC50 in data set [5] (setting [10]) turned out to be 15 µM.
Regarding `COC(=O)c1ccc2c(n1)C(=O)C1=C(C2=O)S(=O)(=O)CCN1` [Compound 3], the IC50 in data set [1] (setting [6]) came to 6.6 µM; in data set [2] (setting [7]) it was 180 µM; in data set [3] (setting [8]), 31 µM; in data set [4] (setting [9]), 2.5 µM; in data set [5] (setting [10]) it was 140 µM. For the same compound, in data set [4], the “SI Pf” value is given as 56.
With `O=C(O)c1cc2c(o1)C(=O)C1=C(C2=O)S(=O)(=O)C=CN1` [Compound 17, 5,9-Dioxo-5,9-dihydro-4H-benzofuro[5,6-b][1,4]thiazine-7-carboxylic Acid 1,1-Dioxide], the melting point was 280 °C (dec.). Further, the IC50 in data set [1] (setting [6]) amounted to 2.7 µM. Besides, in data set [2] (setting [7]), the IC50 was over 300 µM. The IC50 in data set [3] (setting [8]) was determined as 120 µM. The IC50 in data set [4] (setting [9]) turned out to be 0.34 µM. The “SI Pf” value in data set [4] came out at 560. Further, the IC50 in data set [5] (setting [10]) came to 190 µM.
In the case of `CC(C)=CCC/C(C)=C/CNC(=O)c1ccc2c(n1)C(=O)C1=C(C2=O)S(=O)(=O)C=CN1` [Compound 8g, (E)-N-(3,7-Dimethylocta-2,6-dien-1-yl)-5,10-dioxo-5,10-dihydro-4H-[1,4]thiazino[2,3-g] quinoline-7-carboxamide 1,1-Dioxide], the melting point was 280 °C (dec.). For the same compound, the half-inhibitory concentration (IC50) in data set [1] (setting [6]) worked out at 2.5 µM. In data set [2] (setting [7]), the IC50 came to 42 µM. The IC50 in data set [3] (setting [8]) is 150 µM. The IC50 in data set [4] (setting [9]) was found to be 1.1 µM. Further, the “SI Pf” value in data set [4] was 4. Also, the IC50 in data set [5] (setting [10]) was 4.9 µM.
For `O=C(NCCc1ccccc1)c1ccc2c(n1)C(=O)C1=C(C2=O)S(=O)(=O)CCN1` [Compound 7e, N-Phenethyl-5,10-dioxo-3,4,5,10-tetrahydro-2H-[1,4]thiazino[2,3-g]quinoline-7-carboxamide 1,1-Dioxide], the melting point is 240 °C (dec.). In addition, the IC50 in data set [1] (setting [6]) came to 2.4 µM. In addition, the IC50 in data set [2] (setting [7]) worked out at 140 µM. Besides, in data set [3] (setting [8]), the IC50 was 160 µM. Also, the IC50 in data set [4] (setting [9]) was found to be 1.5 µM. Further, the “SI Pf” value in data set [4] is 72. Further, in data set [5] (setting [10]), the IC50 came to 110 µM.
With `COC(=O)CNC(=O)c1ccc2c(n1)C(=O)C1=C(C2=O)S(=O)(=O)C=CN1` [Compound 8j, Methyl 2-(1,1-dioxido-5,10-dioxo-5,10-dihydro-4H-[1,4]thiazino[2,3-g]quinoline-7-carboxamido)acetate], the IC50 stood at 35 µM in data set [1] (setting [6]); 160 µM in data set [2] (setting [7]); 220 µM in data set [3] (setting [8]); 1.8 µM in data set [4] (setting [9]); 100 µM in data set [5] (setting [10]). Moreover, the “SI Pf” value in data set [4] is given as 57.
On to `COc1cc([C@@H]2c3cc4c(cc3[C@H](O)[C@H]3COC(=O)[C@H]23)OCO4)cc(OC)c1OC` [Podophyllotoxin, reference compound], for which the IC50 stood at 0.004 µg/mL in data set [5] (Rattus norvegicus, L6, read-out: IC50 L6 cells, rat skeletal myoblasts, positive control); 0.01 µM in data set [5] (Rattus norvegicus, Myoblast, read-out: IC50 L6, cytotoxicity, L6 rat skeletal myoblasts, average of two independent assays); 0.019 µM in data set [5] (read-out: IC50 L6, cytotoxicity, L6 rat skeletal myoblasts, average of two independent assays).
As for `O=C(O)c1ccc2c(n1)C(=O)C1=C(C2=O)S(=O)(=O)C=CN1` [Compound 4], the IC50 in data set [1] (setting [6]) was 4 µM; in data set [2] (setting [7]) it was over 290 µM; in data set [3] (setting [8]), 190 µM; in data set [4] (setting [9]), 0.6 µM; in data set [5] (setting [10]), 180 µM. Further, in data set [4], the “SI Pf” value worked out at 300.
On to `Nc1nc(N)nc(Nc2ccc([As]3SCC(CO)S3)cc2)n1` (stereo not drawn) [Melarsoprol, reference compound], for which the IC50 in data set [1] (Trypanosoma brucei, read-out: IC50 T. b. rhod., STIB 900, trypomastigotes, average of two independent assays) is 0.005 µM; in data set [1] (Trypanosoma brucei, read-out: IC50 T.b. rhodesiense, STIB900, trypomastigote forms, positive control) it was 0.004 µg/mL; in data set [1] (read-out: IC50 T. b. rhod., STIB 900, trypomastigotes, average of two independent assays), 0.01 µM.
With `COC(=O)c1cc2c(s1)C(=O)C1=C(NCCS1(=O)=O)C2=O` [Compound 10b, Methyl 5,9-Dioxo-2,3,5,9-tetrahydro-1H-thieno[3′,2′:4,5]benzo [1,2-b][1,4]thiazine-7-carboxylate 4,4-Dioxide], the melting point is 280 °C (dec.).
On to `CCN(CC)CCCC(C)Nc1ccnc2cc(Cl)ccc12` (stereo not drawn) [Chloroquine, reference compound], for which the IC50 was 0.2 µM in data set [4] (Plasmodium falciparum, K1, read-out: IC50 P. falc. K1, K1 dual drug resistant strain, IEF stage, average of two independent assays); 0.065 µg/mL in data set [4] (Plasmodium falciparum, K1, read-out: IC50 P. falciparum, K1 (chloroquine and pyrimethamine resistant), erythrocytic stages, positive control); 0.28 µM in data set [4] (read-out: IC50 P. falc. K1, K1 dual drug resistant strain, IEF stage, average of two independent assays).
Regarding `O=C(O)CNC(=O)c1ccc2c(n1)C(=O)C1=C(C2=O)S(=O)(=O)C=CN1` [Compound 8k, 2-(1,1-Dioxido-5,10-dioxo-5,10-dihydro-4H-[1,4]thiazino[2,3-g]quinoline-7-carboxamido)acetic Acid], the IC50 in data set [1] (setting [6]) is 42 µM; in data set [2] (setting [7]), 160 µM; in data set [3] (setting [8]) it was over 280 µM; in data set [4] (setting [9]), 1.2 µM; in data set [5] (setting [10]) it was 110 µM. For the same compound, the “SI Pf” value in data set [4] is on record as 93.
For `O=C(Cn1ccnc1[N+](=O)[O-])NCc1ccccc1` [Benznidazole, reference compound], the IC50 turned out to be 0.352 µg/mL in data set [2] (Trypanosoma cruzi, TULAHUEN, Myoblast, in Rattus norvegicus, read-out: IC50 T. cruzi, Tulahuen C2C4, amastigote forms in L6 rat myoblasts, positive control); 1.8 µM in data set [2] (setting [7]); 1.4 µM in data set [2] (Tulahuen C4, amastigotes, average of two independent assays, read-out: IC50 T. cruzi).
As to `O=C(O)c1ccc2c(n1)C(=O)C1=C(C2=O)S(=O)(=O)CCN1` [Compound 2, ascidiathiazone A], the IC50 in data set [1] (setting [6]) was 3.1 µM; in data set [2] (setting [7]), over 290 µM; in data set [3] (setting [8]) it was 270 µM; in data set [4] (setting [9]), 3.3 µM; in data set [5] (setting [10]) it was 167 µM; in data set [5] (cytotoxicity, L6 rat skeletal myoblasts, average of two independent assays, read-out: IC50 L6) it was 170 µM. In data set [4], the “SI Pf” value is 50.
